{"source": "ChEMBL document CHEMBL6182948", "about": "(J Med Chem, 2025)", "key": {"A549/TR [1]": {"tested_on": "A549/TR", "assay": "Synergistic antiproliferative activity against human A549/Taxol cells assessed as combination index at 5 uM in presence of 0.025 uM paclitaxel by Chou-Talalay method", "assay_type": "functional"}, "A549/TR [2]": {"tested_on": "A549/TR", "assay": "Synergistic antiproliferative activity against human A549/Taxol cells assessed as combination index at 20 uM in presence of 0.025 uM paclitaxel by Chou-Talalay method", "assay_type": "functional"}, "A549/TR [3]": {"tested_on": "A549/TR", "assay": "Synergistic antiproliferative activity against human A549/Taxol cells assessed as combination index at 2.5 uM in presence of 0.05 uM paclitaxel by Chou-Talalay method", "assay_type": "functional"}, "A549/TR [4]": {"tested_on": "A549/TR", "assay": "Synergistic antiproliferative activity against human A549/Taxol cells assessed as combination index at 5 uM in presence of 0.05 uM paclitaxel by Chou-Talalay method", "assay_type": "functional"}, "A549/TR [5]": {"tested_on": "A549/TR", "assay": "Synergistic antiproliferative activity against human A549/Taxol cells assessed as combination index at 10 uM in presence of 0.05 uM paclitaxel by Chou-Talalay method", "assay_type": "functional"}, "A549/TR [6]": {"tested_on": "A549/TR", "assay": "Synergistic antiproliferative activity against human A549/Taxol cells assessed as combination index at 5 uM in presence of 0.1uM paclitaxel by Chou-Talalay method", "assay_type": "functional"}, "A549/TR [7]": {"tested_on": "A549/TR", "assay": "Synergistic antiproliferative activity against human A549/Taxol cells assessed as combination index at 10 uM in presence of 0.1uM paclitaxel by Chou-Talalay method", "assay_type": "functional"}, "A549/TR [8]": {"tested_on": "A549/TR", "assay": "Synergistic antiproliferative activity against human A549/Taxol cells assessed as combination index at 2.5 uM in presence of 0.5 uM paclitaxel by Chou-Talalay method", "assay_type": "functional"}, "A549/TR [9]": {"tested_on": "A549/TR", "assay": "Synergistic antiproliferative activity against human A549/Taxol cells assessed as combination index at 10 uM in presence of 0.5 uM paclitaxel by Chou-Talalay method", "assay_type": "functional"}, "A549/TR [10]": {"tested_on": "A549/TR", "assay": "Synergistic antiproliferative activity against human A549/Taxol cells assessed as combination index at 20 uM in presence of 0.5 uM paclitaxel by Chou-Talalay method", "assay_type": "functional"}, "A549/TR [11]": {"tested_on": "A549/TR", "assay": "Inhibition of cell migration in human A549/Taxol cells assessed as suppression of wound closure measured after 24 hrs by scratch-wound healing assay", "assay_type": "functional, cell-based", "details": "dose 2.5-5 µM"}, "A549/TR [12]": {"tested_on": "A549/TR", "assay": "Inhibition of cell migration in human A549/Taxol cells assessed as wound closure at 5 uM measured after 24 hrs by scratch-wound healing assay relative to control", "assay_type": "functional", "design": "scale not given: the % may be the effect or the level left"}, "A549/TR [13]": {"tested_on": "A549/TR", "assay": "Inhibition of cell invasion in human A549/Taxol cells assessed as invasive cells at 2.5 uM incubated for 24 hrs by transwell invasion assay relative to control", "assay_type": "functional", "design": "scale not given: the % may be the effect or the level left"}, "A549/TR [14]": {"tested_on": "A549/TR", "assay": "Inhibition of cell invasion in human A549/Taxol cells assessed as reduction in cell migration incubated for 24 hrs by transwell invasion assay relative to control", "assay_type": "functional, cell-based", "details": "dose 2.5-10 µM"}, "[15]": {"assay": "Half life in male Sprague-Dawley rat at 10 mg/kg, po measured up to 24 hrs by LC-MS/MS analysis", "assay_type": "ADME, organism-based", "details": "in vivo"}, "[16]": {"assay": "Tmax in male Sprague-Dawley rat at 10 mg/kg, po measured up to 24 hrs by LC-MS/MS analysis", "assay_type": "ADME, organism-based", "details": "in vivo"}, "[17]": {"assay": "AUC (0 to t) in male Sprague-Dawley rat at 10 mg/kg, po measured up to 24 hrs by LC-MS/MS analysis", "assay_type": "ADME, organism-based", "details": "in vivo"}, "[18]": {"assay": "AUC (0 to infinity) in male Sprague-Dawley rat at 10 mg/kg, po measured up to 24 hrs by LC-MS/MS analysis", "assay_type": "ADME, organism-based", "details": "in vivo"}, "[19]": {"assay": "MRT (0 to t) in male Sprague-Dawley rat at 10 mg/kg, po measured up to 24 hrs by LC-MS/MS analysis", "assay_type": "ADME, organism-based", "details": "in vivo"}, "[20]": {"assay": "MRT (0 to infinity) in male Sprague-Dawley rat at 10 mg/kg, po measured up to 24 hrs by LC-MS/MS analysis", "assay_type": "ADME, organism-based", "details": "in vivo"}, "[21]": {"assay": "Oral bioavailability in male Sprague-Dawley rat at 10 mg/kg measured up to 24 hrs by LC-MS/MS analysis", "assay_type": "ADME, organism-based", "details": "in vivo"}, "[22]": {"assay": "Half life in male Sprague-Dawley rat at 2 mg/kg, iv measured up to 24 hrs by LC-MS/MS analysis", "assay_type": "ADME, organism-based", "details": "in vivo"}, "[23]": {"assay": "Tmax in male Sprague-Dawley rat at 2 mg/kg, iv measured up to 24 hrs by LC-MS/MS analysis", "assay_type": "ADME, organism-based", "details": "in vivo"}, "[24]": {"assay": "AUC (0 to t) in male Sprague-Dawley rat at 2 mg/kg, iv measured up to 24 hrs by LC-MS/MS analysis", "assay_type": "ADME, organism-based", "details": "in vivo"}, "[25]": {"assay": "MRT (0 to t) in male Sprague-Dawley rat at 2 mg/kg, iv measured up to 24 hrs by LC-MS/MS analysis", "assay_type": "ADME, organism-based", "details": "in vivo"}, "[26]": {"assay": "MRT (0 to infinity) in male Sprague-Dawley rat at 2 mg/kg, iv measured up to 24 hrs by LC-MS/MS analysis", "assay_type": "ADME, organism-based", "details": "in vivo"}, "[27]": {"assay": "Apparent volume of distribution in male Sprague-Dawley rat at 2 mg/kg, iv measured up to 24 hrs by LC-MS/MS analysis", "assay_type": "ADME, organism-based", "details": "in vivo, read-out: Vz"}, "[28]": {"assay": "Clearance in male Sprague-Dawley rat at 2 mg/kg, iv measured up to 24 hrs by LC-MS/MS analysis", "assay_type": "ADME, organism-based", "details": "in vivo"}}}
{"smiles": "O=C(Nc1cc(Cl)cc(Cl)c1)c1nc(-c2cccc(Cl)c2)cs1", "values": [{"measurement": "CI", "setting": "A549/TR [1]", "value": 0.71}, {"measurement": "CI", "setting": "A549/TR [2]", "value": 0.63}, {"measurement": "CI", "setting": "A549/TR [3]", "value": 0.08}, {"measurement": "CI", "setting": "A549/TR [4]", "value": 0.16}, {"measurement": "CI", "setting": "A549/TR [5]", "value": 0.2}, {"measurement": "CI", "setting": "A549/TR [6]", "value": 0.15}, {"measurement": "CI", "setting": "A549/TR [7]", "value": 0.47}, {"measurement": "CI", "setting": "A549/TR [8]", "value": 0.24}, {"measurement": "CI", "setting": "A549/TR [9]", "value": 1.14}, {"measurement": "CI", "setting": "A549/TR [10]", "value": 2.15}, {"measurement": "inhibition", "setting": "A549/TR [11]", "value": "Dose-dependent-effect"}, {"measurement": "Activity", "setting": "A549/TR [12]", "value": 3, "unit": "%"}, {"measurement": "Activity", "setting": "A549/TR [13]", "value": 35.7, "unit": "%"}, {"measurement": "inhibition", "setting": "A549/TR [14]", "value": "Dose-dependent-effect"}, {"measurement": "half-life", "setting": "[15]", "value": 1.12, "unit": "h"}, {"measurement": "Tmax", "setting": "[16]", "value": 1, "unit": "h"}, {"measurement": "AUC(0-t) at 24 h", "setting": "[17]", "value": 236, "unit": "ng·h/mL"}, {"measurement": "AUC(0-inf)", "setting": "[18]", "value": 239, "unit": "ng·h/mL"}, {"measurement": "MRT last at 24 h", "setting": "[19]", "value": 2.32, "unit": "h"}, {"measurement": "MRT inf", "setting": "[20]", "value": 2.42, "unit": "h"}, {"measurement": "bioavailability", "setting": "[21]", "value": 2.08, "unit": "%"}, {"measurement": "half-life", "setting": "[22]", "value": 3.78, "unit": "h"}, {"measurement": "Tmax", "setting": "[23]", "value": 4.8, "unit": "min"}, {"measurement": "AUC(0-t) at 24 h", "setting": "[24]", "value": 2290, "unit": "ng·h/mL"}, {"measurement": "MRT last at 24 h", "setting": "[25]", "value": 0.64, "unit": "h"}, {"measurement": "MRT inf", "setting": "[26]", "value": 0.73, "unit": "h"}, {"measurement": "Vd", "setting": "[27]", "value": 4.77, "unit": "L/kg"}, {"measurement": "clearance", "setting": "[28]", "value": 14.7, "unit": "mL/min/kg"}]}
